Converted amounts (≈) assume the structure as drawn. Read-outs that look alike come from different tables or passages of the source.
Columns and labels:
[1] = tested on: E. coli TolC-, an efflux defective mutant; assay: microbe, parasite or virus in culture; type: cell-based; settings: Escherichia coli
[2] = tested on: S. aureus (ATCC number 29213); assay: microbe, parasite or virus in culture; type: cell-based
[3] = tested on: E. coli (BW251113 strain); assay: microbe, parasite or virus in culture; type: cell-based; settings: Escherichia coli
MRSA (ATCC number 43300) = assay: microbe, parasite or virus in culture; type: cell-based, methicillin-resistant Staphylococcus aureus; settings: Staphylococcus aureus
[4] = tested on: F. tularensis, strain Utah 112; assay: microbe, parasite or virus in culture; type: cell-based; settings: Francisella tularensis, UTAH112
FtuFabI = FtuFabI (Francisella tularensis subsp. tularensis, UniProt Q5NGQ3); assay: biochemical; design: species or system F. tularensis subsp. tularensis Schu4; settings: for Ki: read-out: Ki^2 (Calculated using the Cheng-Prusoff Equation)
[5] = tested on: B. anthracis, ΔANR strain; assay: microbe, parasite or virus in culture; type: cell-based; settings: Bacillus anthracis
S. aureus = assay: Cell viability as a function of time (measured with depolarization); type: cell-based
S. aureus membrane = assay: Membrane depolarization as a function of time; type: cell-based
FabI = FabI (Francisella tularensis subsp. tularensis, UniProt Q5NGQ3); assay: biochemical; design: species or system F. tularensis subsp. tularensis Schu4; settings: read-out: Ki^1 (Experimental Ki)
[6] = read-out: IC50, Inhibition of FabI

FtuFabI, sequence (Q5NGQ3 1-260 limits assumed): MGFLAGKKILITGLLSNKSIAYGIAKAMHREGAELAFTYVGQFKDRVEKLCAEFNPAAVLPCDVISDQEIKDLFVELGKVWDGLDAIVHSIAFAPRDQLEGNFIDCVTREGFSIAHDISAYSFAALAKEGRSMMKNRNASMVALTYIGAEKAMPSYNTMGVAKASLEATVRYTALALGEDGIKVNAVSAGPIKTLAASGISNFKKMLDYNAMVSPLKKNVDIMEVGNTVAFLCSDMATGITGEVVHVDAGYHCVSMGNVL
FabI, sequence (Q5NGQ3 1-260 limits assumed): as above

| Compound | MIC [1] | MIC ([2]; Staphylococcus aureus) | MIC [3] | MIC (MRSA (ATCC number 43300)) | MIC [4] | MIC [5] | IC50 (FtuFabI) | other results |
| --- | --- | --- | --- | --- | --- | --- | --- | --- |
| Cc1cc2ncn(C(C)c3ccc(Cl)c(Cl)c3)c2cc1C (centres unmarked) [Compound 2, 1-(1-(3,4-dichlorophenyl)ethyl)-5,6-dimethyl-1H-benzo[d]imidazole] | 6.3 µg/mL (≈ 19.7 µM) | 12.5 µg/mL (≈ 39.2 µM) | > 12.5 µg/mL | 12.5 µg/mL (≈ 39.2 µM) | > 12.5 µg/mL | 12.5 µg/mL (≈ 39.2 µM) | – | MBC [1]: 12.5 µg/mL (≈ 39.2 µM); IC50 (FtuFabI; [6]): 0.37 µM |
| COc1ccc(Cn2cnc3cc(C)c(C)cc32)cc1OC [Compound 22, 1-(3,4-dimethoxybenzyl)-5,6-dimethyl-1H-benzo[d]imidazole] | – | – | – | – | – | – | 7.6 µM | – |
| COc1ccc(Cn2cnc3cc4c(cc32)CCC4)cc1 [Compound 20, 1-(4-methoxybenzyl)-1,5,6,7-tetrahydroindeno[5,6-d]imidazole] | > 12.5 µg/mL | > 12.5 µg/mL | > 12.5 µg/mL | > 12.5 µg/mL | 5.5 µg/mL (≈ 19.8 µM) | > 12.5 µg/mL | 0.84 µM | MBC [4]: 37.5 µg/mL (≈ 135 µM) |
| COc1ccc(Cn2cnc3cc(C)c(C)cc32)cc1 [Compound 16, 1-(4-methoxybenzyl)-5,6-dimethyl-1H-benzo[d]imidazole] | – | – | – | – | – | – | 4.7 µM | – |
| Cc1cc2ncn(Cc3ccc4c(c3)OCO4)c2cc1C [Compound 17, 1-(benzo[d][1,3]dioxol-5-ylmethyl)-5,6-dimethyl-1H-benzo[d]imidazole] | – | – | – | – | – | – | 4.4 µM | – |
| Nc1ccc(Cn2cnc3cc4c(cc32)CCC4)cc1 [Compound 21, 4-((6,7-dihydroindeno[5,6-d]imidazol-1(5H)-yl)methyl)aniline] | > 12.5 µg/mL | > 12.5 µg/mL | > 12.5 µg/mL | > 12.5 µg/mL | > 12.5 µg/mL | > 12.5 µg/mL | 12 µM | – |
| COc1ccc(Cn2cnc3cc4c(cc32)CCCC4)cc1 [Compound 24, 1-(4-methoxybenzyl)-5,6,7,8-tetrahydro-1H-naphtho[2,3-d]imidazole] | 12.5 µg/mL (≈ 42.8 µM) | > 12.5 µg/mL | > 12.5 µg/mL | > 12.5 µg/mL | 4.7 µg/mL (≈ 16.1 µM) | > 12.5 µg/mL | 0.33 µM | MBC [1]: > 25 µg/mL; MBC [4]: 18.8 µg/mL (≈ 64.3 µM) |
| CC1(C)S[C@@H]2[C@H](NC(=O)[C@H](N)c3ccccc3)C(=O)N2[C@H]1C(=O)O [Ampicillin, reference compound] | – | – | – | – | – | – | – | MIC [2]: 0.4 µg/mL (≈ 1.14 µM); Cell viability (done at 2X MIC) (S. aureus): bactericidal; Depolarization (done at 2X MIC) (S. aureus membrane): No depolarization |
| CC(c1ccc(Cl)c(Cl)c1)n1cnc2cc3c(cc21)CC(C)(C)C3 (centres unmarked) [Compound 5, 1-(1-(3,4-dichlorophenyl)ethyl)-6,6-dimethyl-1,5,6,7-tetrahydroindeno[5,6-d]imidazole] | > 12.5 µg/mL | 4.7 µg/mL (≈ 13.1 µM) | > 12.5 µg/mL | 4.7 µg/mL (≈ 13.1 µM) | > 12.5 µg/mL | > 12.5 µg/mL | – | MBC ([2]; Staphylococcus aureus): > 12.5 µg/mL; MBC (MRSA (ATCC number 43300)): > 12.5 µg/mL; IC50 (FtuFabI; [6]): 0.24 µM |
| COc1ccc(Cn2cnc3cc4c(cc32)CC(C)(C)C4)cc1C [Compound 11, 1-(4-methoxy-3-methylbenzyl)-6,6-dimethyl-1,5,6,7-tetrahydroindeno[5,6-d]imidazole] | > 12.5 µg/mL | > 12.5 µg/mL | > 12.5 µg/mL | > 12.5 µg/mL | > 12.5 µg/mL | > 12.5 µg/mL | 0.014 µM | – |
| COc1ccc(Cn2cnc3cc(C)c(C)cc32)cc1C [Compound 7, 1-(4-methoxy-3-methylbenzyl)-5,6-dimethyl-1H-benzo[d]imidazole] | 12.5 µg/mL (≈ 44.6 µM) | > 12.5 µg/mL | > 12.5 µg/mL | > 12.5 µg/mL | > 12.5 µg/mL | > 12.5 µg/mL | 0.25 µM | – |
| Oc1cc(Cl)ccc1Oc1ccc(Cl)cc1Cl [Triclosan, reference compound] | – | 0.4 µg/mL (≈ 1.38 µM) | – | – | – | – | – | Cell viability (done at 2X MIC) (S. aureus): Possibly bacteriostatic initially but then bactericidal after overnight incubation; Depolarization (done at 2X MIC) (S. aureus membrane): Strongly depolarizing |
| COc1ccc(Cn2cnc3cc4c(cc32)CCC4)cc1C [Compound 8, 1-(4-methoxy-3-methylbenzyl)-1,5,6,7-tetrahydroindeno[5,6-d]imidazole] | 12.5 µg/mL (≈ 42.8 µM) | > 12.5 µg/mL | > 12.5 µg/mL | > 12.5 µg/mL | 5.5 µg/mL (≈ 18.8 µM) | > 12.5 µg/mL | – | MBC [4]: 12.5 µg/mL (≈ 42.8 µM); IC50 (FtuFabI; [6]): 0.005 µM |
| c1cc2c(cc1Cn1cnc3cc4c(cc31)CCC4)OCO2 [Compound 19, 1-(benzo[d][1,3]dioxol-5-ylmethyl)-1,5,6,7-tetrahydroindeno[5,6-d]imidazole] | > 12.5 µg/mL | 9.4 µg/mL (≈ 32.2 µM) | > 12.5 µg/mL | 10.9 µg/mL (≈ 37.3 µM) | 6.3 µg/mL (≈ 21.6 µM) | > 12.5 µg/mL | 2.2 µM | MBC ([2]; Staphylococcus aureus): > 25 µg/mL; MBC (MRSA (ATCC number 43300)): > 25 µg/mL; MBC [4]: 37.5 µg/mL (≈ 128 µM) |
| COc1ccc(Cn2cnc3cc4c(cc32)CCC4)cc1OC [Compound 23, 1-(3,4-dimethoxybenzyl)-1,5,6,7-tetrahydroindeno[5,6-d]imidazole] | – | – | – | – | – | – | 5.9 µM | – |
| Cc1cc2ncn(Cc3ccc(O)c(C)c3)c2cc1C [Compound 18, 4-((5,6-dimethyl-1H-benzo[d]imidazol-1-yl)methyl)-2-methylphenol] | – | – | – | – | – | – | 1.3 µM | – |
| CC1(C)Cc2cc3ncn(Cc4ccc5c(c4)CC[C@@H]5O)c3cc2C1 [Compound 15, (S)-5-((6,6-dimethyl-6,7-dihydroindeno[5,6-d]imidazol-1(5H)-yl)methyl)-2,3-dihydro-1H-inden-1-ol] | > 12.5 µg/mL | > 12.5 µg/mL | > 12.5 µg/mL | > 12.5 µg/mL | > 12.5 µg/mL | > 12.5 µg/mL | 0.041 µM | – |
| Cc1cc2ncn(Cc3ccc(Cl)c(Cl)c3)c2cc1C [Compound 1, 1-(3,4-dichlorobenzyl)-5,6-dimethyl-1H-benzo[d]imidazole] | – | 25 µg/mL (≈ 81.9 µM) | – | – | – | – | – | Cell viability (done at 2X MIC) (S. aureus): Bactericidal intially but cells recover and compound is not lethal overnight; IC50 (FtuFabI; [6]): 0.3 µM; Depolarization (done at 2X MIC) (S. aureus membrane): Depolarization seen initially in the first 60 min |
| CC(c1ccc(Cl)c(Cl)c1)n1cnc2cc3c(cc21)COC3 (centres unmarked) [Compound 6, 1-(1-(3,4-dichlorophenyl)ethyl)-5,7-dihydro-1H-isobenzofuro[5,6-d]imidazole] | > 12.5 µg/mL | > 12.5 µg/mL | > 12.5 µg/mL | > 12.5 µg/mL | > 12.5 µg/mL | > 12.5 µg/mL | – | IC50 (FtuFabI; [6]): 0.89 µM |
| N#CC(C#N)=NNc1cccc(Cl)c1 [CCCP, carbonyl cyanide m-chlorophenylhydrazone, reference compound] | – | 1 µg/mL (≈ 4.89 µM) | – | – | – | – | – | Cell viability (done at 2X MIC) (S. aureus): bactericidal; Depolarization (done at 2X MIC) (S. aureus membrane): Highly depolarizing |
| COc1ccc(Cn2cnc3cc4c(cc32)CCCC4)cc1C [Compound 9, 1-(4-methoxy-3-methylbenzyl)-5,6,7,8-tetrahydro-1H-naphtho[2,3-d]imidazole] | 4.7 µg/mL (≈ 15.3 µM) | 6.3 µg/mL (≈ 20.6 µM) | > 12.5 µg/mL | 12.5 µg/mL (≈ 40.8 µM) | 3.1 µg/mL (≈ 10.1 µM) | 6.3 µg/mL (≈ 20.6 µM) | – | MBC [1]: 9.4 µg/mL (≈ 30.7 µM); MIC [2]: 6.3 µg/mL (≈ 20.6 µM); MBC ([2]; Staphylococcus aureus): 25 µg/mL (≈ 81.6 µM); Cell viability (done at 2X MIC) (S. aureus): Clearly bacteriostatic; MBC [4]: 6.3 µg/mL (≈ 20.6 µM); IC50 (FtuFabI; read-out: IC50): 0.14 µM; IC50 (FtuFabI; [6]): 0.14 µM; Ki (FtuFabI): 0.11 µM; Depolarization (done at 2X MIC) (S. aureus membrane): Initially depolarizing (in first 60 min) but cells ‘recover’ and regain polarization compared to control with no compound; Ki (FabI): 0.13 ± 0.01 µM; MBC [5]: 6.3 µg/mL (≈ 20.6 µM) |
| CC1(C)Cc2cc3ncn(Cc4ccc5c(c4)OCO5)c3cc2C1 [Compound 13, 1-(benzo[d][1,3]dioxol-5-ylmethyl)-6,6-dimethyl-1,5,6,7-tetrahydroindeno[5,6-d]imidazole] | 12.5 µg/mL (≈ 39 µM) | > 12.5 µg/mL | > 12.5 µg/mL | > 12.5 µg/mL | > 12.5 µg/mL | > 12.5 µg/mL | 0.029 µM | – |
| COc1ccc(Cn2cnc3cc4c(cc32)CCCC4)cc1OC [Compound 10, 1-(3,4-dimethoxybenzyl)-5,6,7,8-tetrahydro-1H-naphtho[2,3-d]imidazole] | > 12.5 µg/mL | > 12.5 µg/mL | > 12.5 µg/mL | > 12.5 µg/mL | > 12.5 µg/mL | > 12.5 µg/mL | – | IC50 (FtuFabI; read-out: IC50): 1.36 µM; IC50 (FtuFabI; [6]): 1.36 µM; Ki (FtuFabI): 1.1 µM; Ki (FabI): 1.43 ± 0.27 µM |
| COc1ccc(Cn2cnc3cc4c(cc32)CC(C)(C)C4)cc1OC [Compound 12, 1-(3,4-dimethoxybenzyl)-6,6-dimethyl-1,5,6,7-tetrahydroindeno[5,6-d]imidazole] | > 12.5 µg/mL | > 12.5 µg/mL | > 12.5 µg/mL | > 12.5 µg/mL | > 12.5 µg/mL | > 12.5 µg/mL | 0.071 µM | – |
| CC(c1ccc(Cl)c(Cl)c1)n1cnc2cc3c(cc21)CCC3 (centres unmarked) [Compound 3, 1-(1-(3,4-dichlorophenyl)ethyl)-1,5,6,7-tetrahydroindeno[5,6-d]imidazole] | 3.1 µg/mL (≈ 9.36 µM) | 5.5 µg/mL (≈ 16.6 µM) | > 12.5 µg/mL | 6.3 µg/mL (≈ 19 µM) | 3.9 µg/mL (≈ 11.8 µM) | 3.9 µg/mL (≈ 11.8 µM) | 0.043 µM | MBC [1]: 12.5 µg/mL (≈ 37.7 µM); MIC [2]: 5.5 µg/mL (≈ 16.6 µM); MBC ([2]; Staphylococcus aureus): > 25 µg/mL; MBC (MRSA (ATCC number 43300)): 12.5 µg/mL (≈ 37.7 µM); Cell viability (done at 2X MIC) (S. aureus): Bacteriostatic; MBC [4]: 9.4 µg/mL (≈ 28.4 µM); Depolarization (done at 2X MIC) (S. aureus membrane): Initially depolarizing (in first 60 min) but cells ‘recover’ and regain polarization compared to control with no compound; MBC [5]: 4.7 µg/mL (≈ 14.2 µM) |
